Measured values published in US20110306638A1, “BENZISOXAZOLE PIPERIDINYL DERIVATIVES, PHARMACEUTICAL COMPOSITIONS COMPRISING THE DERIVATIVES AND THEIR USE” (NHWA PHARMA. CORPORATION, priority 2008, published 2011).
Read-outs that look alike come from different tables or passages of the source. Marks after values point to notes of the source that are not given here.

Key:
5-HT2A receptor = target: T1, 5-HT2A receptor (Homo sapiens, UniProt P28223); experiment: In-vitro competitive binding to 5-HT2A receptor, [3H]-Ketanserin, transformed HEK293 cells; settings: for IC50 / Ki: affinity to 5-HT2A receptor, concentration gradient test; for inhibition at 10 µM: read-out: 5-HT2A [3H]-Ketanserin inhibition percentage
T1 construct: expressed in transfected cells; host or cells: HEK293
Description: All test samples were dissolved in DMSO at a concentration of 0.01 mol/L, and then diluted with deionized water to 100 umol/L.
HEK293 cells were transformed with plasmid carriers containing the gene coding for 5-HT2A receptor protein by using calcium phosphate transformation. Stable cell strains which could stably express 5-HT2A receptor protein were obtained from the transformed cells by cultivating in a culture media containing G418, selecting monoclones of the cell and performing radioactive ligand binding assay.
Beckman LS 6500 Scintillation Counter.
HEK-293 cells were infected with recombined viruses containing various genes described above. […] Cells were centrifuged at 1000 rpm for 5 min Culture media was discarded, and cell bodies were collected and stored at −20° C. in a freezer. The cell bodies were resuspended with Tris-HCl reaction buffer during assay.
After incubation at 37° C. for 15 min, the reaction mixture was immediately transferred into ice bath to terminate the reaction; the reaction mixture was quickly filtered through GF/C glass cellulose filter on a Millipore cell sample collector, and was then washed with eluting solution (50 mM Tris-HCl, PH 7.7, 3 ml×3) and dried in a microwave for 8-9 min. The filter was transferred into a 0.5 ml centrifuge tube, and 500 μl lipid soluble scintillation fluid was added. The centrifuge tube was allowed to stand in darkness for more than 30 min. Radioactivity was determined by counting Inhibition percentage of each compound on isotope ligand binding was calculated according to the following equation:
inhibition percentage(I %)=cpm of overall binding tube−cpm of compound/cpm of overall binding tube−cpm of nonspecific binding tube×100%.
Each compound was tested in two duplicate test tubes and two separate tests were performed.

Kunming mice [1] = experiment: Acetic acid-induced abdominal writhing test in mice; type: in vivo
Description: Kunming mice, SPF KM mice purchased from […] SLAC LABORATORY ANIMAL CO. LTD and kept in normal environment.
The compounds were dissolved in water for injection at a concentration of 4 mg/ml, 2 mg/ml and 1 mg/ml and were given intragastrically to animals.
(§1) Three different doses (10, 20, and 40 mg/kg) were administered to the test groups.
Aspirin was used as a positive control and acetic acid writhing test was used.
30 mice (half male and half female) weighing 18-23 g were divided into five groups, including negative control group, positive control group, low dose group, medium dose group and high dose group:
Mice in test group received test drug (10 mg/kg, 20 mg/kg, 40 mg/kg) via intragastric administration. Negative control group received physiological saline (20 ml/kg) via oral administration. Positive control group received aspirin (200 mg/kg) via oral administration. One hour later, each group received 0.7% acetic acid 10 ml/kg intraperitoneally. Five minutes later, the number of writhes was counted within the subsequent 15 min period; inhibition percentage of writhing response in each test group was calculated by the following equation: […]

[2] = target: opioid receptor subtype μ (Homo sapiens, UniProt P35372); experiment: Competitive binding to opioid receptor subtype μ, [3H]Diprenorphine; settings: tested concentration 10^−5 mol/L; read-out: μ inhibition percentage of competitive binding
Description: (§2) The respective test compounds were added to the sample tube (final concentration of 10^−5M), incubated at 37° C. for 30 min and placed in ice bath to terminate the reaction. The reaction mixture was filtered through GF/C (Whatman) glass fiber filter by vacuum filtration on a Millipore sample collector. The filter was washed three times with 50 mM Tris-HCl (pH7.4), each with 4 ml; dried and transferred into a 0.5 ml Eppendorf tube, in which 0.5 ml lipophilic scintillation fluid was added. Radioactivity was detected by a LS6500 scintillation counter. Each concentration had three duplicate test tubes and each separate test was repeated 3 to 4 times.
(§3) Specific binding CMP value for each sample tube=overall binding CPM value for each sample tube−CPM value of non-specific binding tube.
(§4) [Inhibition percentage of competitive binding between the test compound and different opioid receptor subtypes (%)=(100%−specific binding (CPM value)of sample tube/specific binding(CPM value)of solvent group×100%)]
(§5) Average was taken for each test drug from three duplicate tubes; each test was repeated two or more times.

[3] = target: T2, 5-HT reuptake by brain synapses (Rattus norvegicus, UniProt P31652); experiment: [3H]5-HT reuptake test in rat brain synapses; type: biochemical; settings: for inhibition at 10 µM: final concentration 10 umol/L, rat brain synapses, read-out: 5-HTU [3H] 5-HT reuptake inhibition percentage Mean
T2 construct: forehead cortex was obtained for [^3H]5-HT, [^3H]NA reuptake test; from tissue; host or cells: rat (SD) forebrain cortex synaptosomes
Description: The method was as follows:
Male SD rats were killed by cervical dislocation, heads were immediately cut and brains were obtained and put on ice, related brain tissues were dissected (forehead cortex was obtained for [^3H]5-HT, [^3H]NA reuptake test, corpus striatum was obtained for [^3H]DA reuptake).
After the sample was weighed, 10 folds (V/W) ice cold 0.32 mol/L sucrose solution was added.
According to [a. […] 5-HT was added and after incubation in water bath at 37° C. for 10 min, the reaction mixture was immediately taken out of the water bath and 2 ml ice cold 150 mmol/L Tris-HCl was added to terminate the reaction. The sample was collected on a round glass fiber filter by vacuum filtration and washed three times with 3 ml ice cold Tris-HCl buffer. The filter membrane was removed, dried in a far-infrared oven for 15 min, then transferred into a EP tube, in which 1.5 ml scintillation fluid was added, left overnight and detected by a scintillation counter. The test sample was not added into solvent controlled overall binding tube or non-specific binding tube. 50 μl solvent was added into the overall binding tube, and in [^3H] 5-HT reuptake test, 600 μmol/L cocaine was added into the non-specific binding tube.

[4] = target: opioid receptor subtype κ (Homo sapiens, UniProt P41145); experiment: Competitive binding to opioid receptor subtype κ, [3H]Diprenorphine; settings: tested concentration 10^−5 mol/L; read-out: κ inhibition percentage of competitive binding
Description: as §2, §3, §4, §5

mice = experiment: Sedative effects in mice (spontaneous activities); type: in vivo; set-up: unit not given here; settings: single dose 20 mg/kg
Description: Spontaneous activities of the mice were recorded by alternating current tube, Sedative effects were tested after single dose (20 mg/kg).

[5] = target: opioid receptor subtype δ (Homo sapiens, UniProt P41143); experiment: Competitive binding to opioid receptor subtype δ, [3H]Diprenorphine; settings: tested concentration 10^−5 mol/L; read-out: δ inhibition percentage of competitive binding
Description: as §2, §3, §4
Average was taken for each test drug from three duplicate tubes; each test was repeated two or more times. Data were presented as mean±SE and statistical comparison was made by ANOVA.

Kunming mice [6] = experiment: Hot-plate test in mice; type: in vivo; settings: 1 h post dose
Description: Kunming mice, SPF KM mice were purchased from […] SLAC LABORATORY ANIMAL CO. LTD and kept in normal environment.
The compounds were dissolved in water for injection at a concentration of 4 mg/ml, 2 mg/ml and 1 mg/ml and were given subcutaneously to animals.
as §1
Morphine was used as a positive control and hot plate test was used.
30-40 mice (half male and half female) weighed from 18 to 23 gram were used. First, each mouse was placed on a hot plat at 55° C. to determine basic pain threshold for 2-3 times. Those animals with basic pain threshold of 5-30 s were qualified, unqualified mice were not used. 30 qualified mice were divided into five groups, including negative control group, positive control group, low-dose group, medium-dose group and high-dose group:
Mice in test groups received test sample solution (10 mg/kg, 20 mg/kg, 40 mg/kg) via subcutaneous injection in the neck. Positive control group received subcutaneous injection of morphine (2 mg/kg). One hour later, pain threshold values were determined for mice in each group as post-drug pain threshold. Percentage increase in pain threshold was calculated according to the following equation: […]

[7] = 10 mg/kg intragastric administration
[8] = 20 mg/kg intragastric administration
[9] = 40 mg/kg intragastric administration

IC50 (5-HT2A receptor) [nM] | Ki (5-HT2A receptor) [nM] | inhibitory activity on 5-HT2A (in words) (5-HT2A receptor; compared with Aripiprazole) | inhibition at 10 µM (5-HT2A receptor; final concentration 10 umol/L) [%] | inhibition at 10 µM [2] [%] | inhibition at 10 µM [3] [%] | inhibition at 10 µM [4] [%] | inhibition at 10 µM [5] [%] | SMILES | Inhibition percentage of writhing response (Kunming mice [1]; [7]) | Inhibition percentage of writhing response (Kunming mice [1]; [8]) | Inhibition percentage of writhing response (Kunming mice [1]; [9]) | inhibitory activity on 5-HT reuptake (in words) ([3]; at 10 μmol/L, compared with Dutoxetine) | Sedative effect (mice) | Percentage increase in pain threshold (Kunming mice [6]; 10 mg/kg S.c.) | Percentage increase in pain threshold (Kunming mice [6]; 20 mg/kg S.c.) | Percentage increase in pain threshold (Kunming mice [6]; 40 mg/kg S.c.) | inhibition at 10 µM (5-HT2A receptor) [%]
3.09 | 2.06 | potent inhibitory activities | 99.7 | 41.9 ± 0.5 | 88.3 | 7 ± 0.6 | 0 | N#Cc1ccc2cnn(CCCCN3CCC(c4noc5cc(F)ccc45)CC3)c2c1 [II-14, 1-(4-(4-(6-fluorobenzo[d]isoxazol-3-yl)piperidin-1-yl)butyl)-1H-indazole-6-carbonitrile] | 77.70* % | 69.03% | 85.66** % | potent inhibitory activities | 20 | – | – | – | –
3.99 | 2.69 | – | 99.1 | 59.3 ± 0.7 | 86 | 44.1 ± 0.2 | 0 | Fc1ccc2c(C3CCN(CCCCn4cnc5ccc(F)cc54)CC3)noc2c1 [III-2, 6-fluoro-3-(1-(4-(6-fluoro-1H-benzo[d]imidazol-1-yl)butyl)piperidin-4-yl)benzo[d]isoxazole] | 97.61* % | 100.0** % | 100.0** % | – | 64** | 92.55* % | 172.2* % | 97.22% | –

SMILES | IC50 (5-HT2A receptor) [nM] | Ki (5-HT2A receptor) [nM] | inhibitory activity on 5-HT2A (in words) (5-HT2A receptor; compared with Aripiprazole) | inhibition at 10 µM (5-HT2A receptor; final concentration 10 umol/L) [%] | inhibition at 10 µM [2] [%] | inhibition at 10 µM [3] [%] | inhibition at 10 µM [4] [%] | inhibition at 10 µM [5] [%] | Inhibition percentage of writhing response (Kunming mice [1]; [7]) | Inhibition percentage of writhing response (Kunming mice [1]; [8]) | Inhibition percentage of writhing response (Kunming mice [1]; [9]) | inhibitory activity on 5-HT reuptake (in words) ([3]; at 10 μmol/L, compared with Dutoxetine) | Sedative effect (mice) | Percentage increase in pain threshold (Kunming mice [6]; 10 mg/kg S.c.) | Percentage increase in pain threshold (Kunming mice [6]; 20 mg/kg S.c.) | Percentage increase in pain threshold (Kunming mice [6]; 40 mg/kg S.c.) | inhibition at 10 µM (5-HT2A receptor) [%]
Fc1ccc2c(C3CCN(CCCOn4nnc5ccc(Cl)cc54)CC3)noc2c1 [IV-4, 3-(1-(3-(6-chloro-1H-benzo[d][1,2,3]triazol-1-yloxy)propyl)piperidin-4-yl)-6-fluorobenzo[d]isoxazole] | – | – | – | – | 34.3 ± 1.3 | – | 37.3 ± 1.7 | 0 | 88.33% | 99.44% | 97.78% | – | 70.8* | 51.63% | 79.36* % | 89.96* % | 97.4
